{"source": "ChEMBL document CHEMBL1201862", "about": "“PubChem BioAssay data set” (2004)", "key": {"[1]": {"biological_target": "T1, Sentrin-specific protease 1 (Homo sapiens, UniProt Q9P0U3)", "T1 sequence (Q9P0U3 whole entry)": "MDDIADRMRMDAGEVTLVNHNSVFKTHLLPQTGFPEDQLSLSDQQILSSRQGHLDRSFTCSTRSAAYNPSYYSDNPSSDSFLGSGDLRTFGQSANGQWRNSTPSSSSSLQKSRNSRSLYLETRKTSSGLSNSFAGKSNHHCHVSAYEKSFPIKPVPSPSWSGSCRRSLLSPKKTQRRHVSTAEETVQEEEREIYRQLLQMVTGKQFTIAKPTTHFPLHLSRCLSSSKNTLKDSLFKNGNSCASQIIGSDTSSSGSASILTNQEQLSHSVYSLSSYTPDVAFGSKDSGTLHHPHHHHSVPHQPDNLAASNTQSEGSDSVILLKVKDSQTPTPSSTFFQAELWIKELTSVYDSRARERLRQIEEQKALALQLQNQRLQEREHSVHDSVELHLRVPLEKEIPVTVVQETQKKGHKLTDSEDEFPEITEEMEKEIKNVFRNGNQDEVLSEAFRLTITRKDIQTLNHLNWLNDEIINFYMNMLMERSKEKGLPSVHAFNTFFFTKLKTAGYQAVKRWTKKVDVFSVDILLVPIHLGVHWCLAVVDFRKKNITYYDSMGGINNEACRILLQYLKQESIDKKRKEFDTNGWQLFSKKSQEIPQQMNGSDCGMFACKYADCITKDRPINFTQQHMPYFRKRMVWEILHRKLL", "experiment": "Dose response confirmation of small molecule inhibitors of the catalytic domain of the SUMO protease, SENP1 in a FRET assay.", "type": "functional", "settings": "read-out: IC50_Mean"}, "[2]": {"biological_target": "T1, Sentrin-specific protease 1", "experiment": "potency of human SENP1 inhibitors, dose response, biochemical, kinetic FRET (AID 651697)", "type": "functional", "settings": "read-out: IC50_Mean"}, "[3]": {"biological_target": "T2, Zinc finger protein mex-5 (Caenorhabditis elegans, UniProt Q9XUB2)", "T2 sequence (Q9XUB2 whole entry)": "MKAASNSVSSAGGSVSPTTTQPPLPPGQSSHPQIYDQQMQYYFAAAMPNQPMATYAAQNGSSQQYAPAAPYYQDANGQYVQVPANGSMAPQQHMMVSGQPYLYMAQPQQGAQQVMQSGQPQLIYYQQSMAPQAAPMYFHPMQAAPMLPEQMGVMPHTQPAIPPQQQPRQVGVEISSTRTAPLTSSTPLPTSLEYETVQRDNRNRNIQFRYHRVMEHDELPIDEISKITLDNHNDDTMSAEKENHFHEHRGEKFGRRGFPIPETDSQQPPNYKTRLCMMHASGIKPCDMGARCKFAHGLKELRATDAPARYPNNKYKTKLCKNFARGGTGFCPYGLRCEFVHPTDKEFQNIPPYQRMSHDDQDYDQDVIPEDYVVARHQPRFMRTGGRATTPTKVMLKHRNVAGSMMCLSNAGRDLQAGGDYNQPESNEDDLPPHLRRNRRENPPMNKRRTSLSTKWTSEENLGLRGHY", "experiment": "MEX-5/TCR-2 RNA interaction inhibitors, dose response, biochemical, C. elegans, fluorescence polarization (AID 1960)"}, "[4]": {"biological_target": "T3, Endoribonuclease toxin MazF (Escherichia coli K-12, UniProt P0AE70)", "T3 sequence (P0AE70 whole entry)": "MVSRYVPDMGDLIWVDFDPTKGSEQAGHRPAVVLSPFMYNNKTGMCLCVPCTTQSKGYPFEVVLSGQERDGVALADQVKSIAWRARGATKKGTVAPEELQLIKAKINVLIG", "experiment": "MazF toxin RNase activators, dose response, biochemical, fluorescence, single-stranded RNA substrate, uHTS hits (AID 588481)", "type": "functional"}, "[5]": {"biological_target": "T4, RNA-binding protein pos-1 (Caenorhabditis elegans, UniProt G5EF15)", "T4 sequence (G5EF15 whole entry)": "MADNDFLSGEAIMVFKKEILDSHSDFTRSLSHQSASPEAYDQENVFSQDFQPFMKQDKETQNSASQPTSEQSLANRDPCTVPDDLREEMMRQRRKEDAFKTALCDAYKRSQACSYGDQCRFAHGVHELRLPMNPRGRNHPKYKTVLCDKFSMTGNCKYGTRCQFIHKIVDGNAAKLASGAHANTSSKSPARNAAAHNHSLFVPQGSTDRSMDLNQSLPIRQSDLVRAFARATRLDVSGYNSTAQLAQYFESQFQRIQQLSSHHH", "experiment": "inhibitors of POS-1/mex-3 RNA binding, dose response, biochemical, fluorescence polarization (AID 1964);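 also: purified POS-1 fused to maltose binding protein made in E. coli; potency of compounds blocking POS-1 binding to fluorescent RNA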"}, "[6]": {"biological_target": "T5, Corticotropin-releasing factor receptor 2/Corticotropin-releasing factor-binding protein (Homo sapiens, UniProt P24387+Q13324)", "T5 sequence (Q13324 whole entry)": "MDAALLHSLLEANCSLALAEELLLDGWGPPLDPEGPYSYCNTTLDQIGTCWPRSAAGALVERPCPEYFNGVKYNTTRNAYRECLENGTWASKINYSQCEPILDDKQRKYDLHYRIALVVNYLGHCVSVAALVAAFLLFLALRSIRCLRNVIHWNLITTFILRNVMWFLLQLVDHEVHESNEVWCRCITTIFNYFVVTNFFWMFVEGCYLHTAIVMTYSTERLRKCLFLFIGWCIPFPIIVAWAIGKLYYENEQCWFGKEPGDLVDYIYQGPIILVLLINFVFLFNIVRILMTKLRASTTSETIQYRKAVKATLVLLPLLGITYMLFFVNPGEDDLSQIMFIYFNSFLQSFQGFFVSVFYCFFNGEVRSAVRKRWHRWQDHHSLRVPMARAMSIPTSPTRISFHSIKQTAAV", "T5 sequence (P24387 whole entry)": "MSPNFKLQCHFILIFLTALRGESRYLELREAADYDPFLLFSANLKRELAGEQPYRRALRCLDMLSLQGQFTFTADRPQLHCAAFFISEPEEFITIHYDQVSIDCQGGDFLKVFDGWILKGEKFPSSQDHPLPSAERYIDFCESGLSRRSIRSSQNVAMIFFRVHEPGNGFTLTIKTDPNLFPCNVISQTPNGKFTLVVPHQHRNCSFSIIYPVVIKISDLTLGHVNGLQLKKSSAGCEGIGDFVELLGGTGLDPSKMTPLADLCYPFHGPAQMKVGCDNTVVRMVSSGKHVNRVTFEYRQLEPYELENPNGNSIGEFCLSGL", "experiment": "activators of CRF receptor 2 with binding protein – uHTS hits, confirmation (AID 602473)", "type": "functional", "settings": "read-out: EC50_Mean"}, "[7]": {"biological_target": "T3, Endoribonuclease toxin MazF", "experiment": "fluorescent RNA oligo signal without MazF, dose response, counter-screen for MazEF activator project, biochemical, fluorescence, single-stranded RNase substrate (AID 588502)", "type": "functional"}, "[8]": {"experiment": "miR-122 activators in hepatoma reporter cells, dose response, cell-based, Huh7 psiCHECK-miR122, Renilla luciferase, cherry-picked (AID 651956);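 also: huh7 hepatoma cells stably carrying a psiCHECK-2 miR-122 sensor plasmid; renilla luciferase signal reporting endogenous miR-122 activity after 48 h compound exposure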", "type": "functional"}, "[9]": {"biological_target": "T6, Aryl hydrocarbon receptor (Homo sapiens, UniProt P35869)", "T6 sequence (P35869 whole entry)": "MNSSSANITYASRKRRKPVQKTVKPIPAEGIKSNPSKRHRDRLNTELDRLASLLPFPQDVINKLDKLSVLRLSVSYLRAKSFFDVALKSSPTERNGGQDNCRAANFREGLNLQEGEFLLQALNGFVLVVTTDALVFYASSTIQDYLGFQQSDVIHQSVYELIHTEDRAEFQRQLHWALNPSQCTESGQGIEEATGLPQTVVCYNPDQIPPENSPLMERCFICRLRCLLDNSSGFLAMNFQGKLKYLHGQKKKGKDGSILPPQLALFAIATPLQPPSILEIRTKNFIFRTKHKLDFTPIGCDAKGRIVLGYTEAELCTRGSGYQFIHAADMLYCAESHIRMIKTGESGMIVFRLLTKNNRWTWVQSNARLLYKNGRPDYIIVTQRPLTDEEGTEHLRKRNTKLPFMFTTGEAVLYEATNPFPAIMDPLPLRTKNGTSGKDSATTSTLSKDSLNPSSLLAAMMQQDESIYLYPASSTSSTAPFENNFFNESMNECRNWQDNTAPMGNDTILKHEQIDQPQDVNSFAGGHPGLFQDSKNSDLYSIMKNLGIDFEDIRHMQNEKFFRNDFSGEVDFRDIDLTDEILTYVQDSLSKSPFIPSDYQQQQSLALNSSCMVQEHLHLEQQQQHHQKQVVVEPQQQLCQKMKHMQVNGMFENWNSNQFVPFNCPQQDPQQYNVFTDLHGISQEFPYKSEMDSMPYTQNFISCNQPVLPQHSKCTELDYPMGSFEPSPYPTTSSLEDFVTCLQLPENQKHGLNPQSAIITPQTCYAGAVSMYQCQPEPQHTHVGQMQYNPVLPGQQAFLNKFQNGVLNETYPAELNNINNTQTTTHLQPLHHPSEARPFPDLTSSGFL", "settings": "Potency"}}, "note": "Activity calls are given as the source filed them."}
{"smiles": "NC(=S)c1cc2cc(Br)ccc2oc1=O", "values": [{"measurement": "IC50", "setting": "[1]", "result": "3.31 µM (active)"}, {"measurement": "IC50", "setting": "[2]", "result": "5.2 µM (active)"}]}
{"smiles": "C=CCN1C(=O)/C(=C2/Sc3ccc(OC)cc3N2CC)SC1=S", "values": [{"measurement": "EC50", "setting": "[3]", "result": "> 300 µM (not active)"}, {"measurement": "EC50", "setting": "[4]", "result": "> 99 µM (inactive)"}, {"measurement": "EC50", "setting": "[5]", "result": "> 300 µM (inconclusive)"}, {"measurement": "EC50", "setting": "[6]", "result": "> 53 µM (inactive)"}, {"measurement": "EC50", "setting": "[7]", "result": "> 99 µM (inactive)"}]}
{"smiles": "Cc1ccc(-c2cnc3c(c2)C(=O)N([C@H](C)CO)C[C@@H](C)[C@H](CN(C)CC2CCCCC2)O3)cc1", "values": [{"measurement": "AC50", "setting": "[8]", "result": "18.3 µM (active)"}]}
{"smiles": "O=C(C1CCOCC1)N1[C@H](CO)[C@H]2c3ccccc3NC[C@H]21", "values": [{"measurement": "AC50", "setting": "[8]", "result": "30 µM (active)"}]}
{"smiles": "C1=C/CC/C=C/CC/C=C/CC/1", "values": [{"measurement": "AC50", "setting": "[9]", "result": "44.7 µM (inconclusive)"}]}
{"smiles": "CCOP(=S)(OCC)Oc1ccc2c(C)c(Cl)c(=O)oc2c1", "note": "[COUMAPHOS]", "values": [{"measurement": "AC50", "setting": "[9]", "result": "0.178 µM (inconclusive)"}]}
